Experimental data published in article PMC10810197, “A KDPG sensor RccR governs Pseudomonas aeruginosa carbon metabolism and aminoglycoside antibiotic tolerance” (Nucleic Acids Research, 2023).

Key:
RccR (PA5438) [1] = molecular target: T1, RccR (PA5438) (Pseudomonas aeruginosa, UniProt Q9HTC8); test: isothermal titration calorimetry; format: binding
T1 construct: tetramer in crystal

RccR (PA5438) [2] = molecular target: T1, RccR (PA5438); test: X-ray crystal structure of the complex, […] Å; format: binding; conditions: space group I222, four monomers each with KDPG; PDB code not given
RccR (PA5438) [3] = molecular target: RccR (PA5438) (Pseudomonas aeruginosa, UniProt Q9HTC8, S185A); test: biochemical
RccR (PA5438) [4] = molecular target: RccR (PA5438) (Pseudomonas aeruginosa, UniProt Q9HTC8, S183A); test: biochemical
RccR (PA5438) [5] = molecular target: RccR (PA5438) (Pseudomonas aeruginosa, UniProt Q9HTC8, S188A); test: biochemical
RccR (PA5438) (Pseudomonas aeruginosa, UniProt Q9HTC8, S188A), sequence (Q9HTC8 whole entry S188A): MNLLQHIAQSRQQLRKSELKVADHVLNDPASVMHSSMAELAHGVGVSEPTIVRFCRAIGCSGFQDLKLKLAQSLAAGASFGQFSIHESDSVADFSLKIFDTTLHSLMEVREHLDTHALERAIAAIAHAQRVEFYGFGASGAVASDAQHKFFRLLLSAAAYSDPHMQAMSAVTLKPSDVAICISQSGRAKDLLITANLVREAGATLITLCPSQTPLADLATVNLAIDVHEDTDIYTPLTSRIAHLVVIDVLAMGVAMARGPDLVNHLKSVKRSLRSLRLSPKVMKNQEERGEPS

T1 sequence (Q9HTC8 entry or part of it): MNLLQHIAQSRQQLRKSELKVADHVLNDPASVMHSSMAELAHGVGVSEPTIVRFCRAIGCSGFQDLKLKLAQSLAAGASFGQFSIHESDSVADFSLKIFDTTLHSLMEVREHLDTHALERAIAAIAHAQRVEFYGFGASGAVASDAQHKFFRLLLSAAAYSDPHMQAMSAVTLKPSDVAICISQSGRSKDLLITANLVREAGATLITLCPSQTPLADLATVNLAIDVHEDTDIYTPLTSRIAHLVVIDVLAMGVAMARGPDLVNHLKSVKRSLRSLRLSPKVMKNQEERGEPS
RccR (PA5438) (Pseudomonas aeruginosa, UniProt Q9HTC8, S185A), sequence (Q9HTC8 whole entry S185A): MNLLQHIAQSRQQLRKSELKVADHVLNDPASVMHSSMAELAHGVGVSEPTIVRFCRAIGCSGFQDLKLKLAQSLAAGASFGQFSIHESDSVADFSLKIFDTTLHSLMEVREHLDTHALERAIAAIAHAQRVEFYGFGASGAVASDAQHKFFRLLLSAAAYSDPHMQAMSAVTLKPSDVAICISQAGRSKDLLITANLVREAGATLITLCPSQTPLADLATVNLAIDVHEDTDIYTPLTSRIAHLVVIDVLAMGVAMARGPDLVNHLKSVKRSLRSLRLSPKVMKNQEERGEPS
RccR (PA5438) (Pseudomonas aeruginosa, UniProt Q9HTC8, S183A), sequence (Q9HTC8 whole entry S183A): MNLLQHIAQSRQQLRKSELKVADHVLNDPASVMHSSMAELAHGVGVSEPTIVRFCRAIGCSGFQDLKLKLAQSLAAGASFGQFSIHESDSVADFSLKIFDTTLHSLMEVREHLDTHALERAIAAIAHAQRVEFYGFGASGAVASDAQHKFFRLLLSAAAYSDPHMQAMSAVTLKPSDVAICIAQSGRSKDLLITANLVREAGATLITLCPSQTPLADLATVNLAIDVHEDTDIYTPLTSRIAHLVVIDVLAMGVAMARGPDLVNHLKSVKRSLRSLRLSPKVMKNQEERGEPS

O=C(O)C(=O)C[C@H](O)[C@H](O)COP(=O)(O)O [KDPG]
Kd (RccR (PA5438) [1]): 3.31 µM | X-ray crystal structure of the complex, 1.9 Å (RccR (PA5438) [2]): Each monomer in this complex structure harbors a well-defined signal molecule KDPG | Kd (RccR (PA5438) [3]): 21 µM | Kd (RccR (PA5438) [4]): 28.7 µM | Kd (RccR (PA5438) [5]): 15.7 µM
